The record followed here is patent US20250188040A1, “PHARMACEUTICAL COMPOSITIONS COMPRISING WRN HELICASE INHIBITORS” (Vividion Therapeutics, Inc., priority 2022, published 2025).

In one assay the target is T1, WRN C727 (Homo sapiens, UniProt Q14191).
T1 construct: endogenous in cells; host or cells: OCI-AML2
The assay can be described thus: Target engagement, in vitro (lysate), OCI-AML2. Format: binding. To be noted: read-out: OCI-AML2 WRN C727 TE50 in vitro (lysate). The essentials: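 OCI-AML2 intact cells or lysates dosed with compound, then a cysteine-reactive probe; after trypsin digestion, probe-labelled peptides were streptavidin-enriched and quantified by nano-LC parallel reaction monitoring MS. Engagement (%) relative to DMSO controls.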

In a further assay the test system is SW480 cells. The assay can be described thus: Cell growth assay (CellTiter-Glo 2.0), SW480 MSS cell line. To be noted: read-out: Cell Growth Inhibition GI50 SW480.
For assay [1], the target named is hWRN(519-1227)_C-H3CV-GFP-10His (Homo sapiens, UniProt Q14191). The assay can be described thus: Helicase Assay for WRN Inhibition (ATP-dependent, fluorescence based).
Method: Effects of compounds on WRN helicase activity were assessed with the Helicase Assay for WRN Inhibition. This is an ATP-dependent (inclusion of ATP is important and is required for this assay) fluorescence based assay using recombinant WRN and a fluorogenic DNA substrate.
WRN activity was normalized to signal from wells without WRN protein (background, 0% activity) and wells with protein treated only with DMSO (positive control, 10000 activity). For each compound the potency of inhibition (IC50) was determiined using Graphpad Prism.
For another assay, the system named is HCT 116 cells. Put plainly: Cell growth assay (CellTiter-Glo 2.0), HCT 116 MSI-H cell line. To be noted: read-out: Cell Growth Inhibition GI50 HCT-116.
[2] abbreviates: WRN Helicase IC50, 30 min preincubation with ATP, 30 min reaction.

Where two headings read alike, the source gives them in different places.

hWRN(519-1227)_C-H3CV-GFP-10His, sequence (Q14191 519-1227): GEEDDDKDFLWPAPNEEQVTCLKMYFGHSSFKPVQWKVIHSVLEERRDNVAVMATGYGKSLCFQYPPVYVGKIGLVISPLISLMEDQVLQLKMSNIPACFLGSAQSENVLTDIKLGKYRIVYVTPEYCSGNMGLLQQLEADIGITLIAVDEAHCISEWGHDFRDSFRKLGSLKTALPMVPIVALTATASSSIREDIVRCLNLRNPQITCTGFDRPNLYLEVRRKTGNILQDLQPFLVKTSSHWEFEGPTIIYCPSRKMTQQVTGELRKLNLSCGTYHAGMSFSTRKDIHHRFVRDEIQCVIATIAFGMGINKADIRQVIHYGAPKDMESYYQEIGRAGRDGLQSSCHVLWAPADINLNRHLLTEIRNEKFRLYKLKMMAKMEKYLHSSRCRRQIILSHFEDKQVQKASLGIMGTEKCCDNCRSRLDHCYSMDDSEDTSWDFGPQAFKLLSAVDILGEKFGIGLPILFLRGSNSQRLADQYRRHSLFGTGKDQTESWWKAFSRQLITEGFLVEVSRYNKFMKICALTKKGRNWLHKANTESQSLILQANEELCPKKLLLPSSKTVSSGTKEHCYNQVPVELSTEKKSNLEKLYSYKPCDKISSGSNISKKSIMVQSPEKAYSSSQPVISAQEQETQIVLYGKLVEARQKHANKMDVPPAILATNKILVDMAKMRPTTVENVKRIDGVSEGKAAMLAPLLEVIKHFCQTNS
T1 sequence (Q14191 whole entry): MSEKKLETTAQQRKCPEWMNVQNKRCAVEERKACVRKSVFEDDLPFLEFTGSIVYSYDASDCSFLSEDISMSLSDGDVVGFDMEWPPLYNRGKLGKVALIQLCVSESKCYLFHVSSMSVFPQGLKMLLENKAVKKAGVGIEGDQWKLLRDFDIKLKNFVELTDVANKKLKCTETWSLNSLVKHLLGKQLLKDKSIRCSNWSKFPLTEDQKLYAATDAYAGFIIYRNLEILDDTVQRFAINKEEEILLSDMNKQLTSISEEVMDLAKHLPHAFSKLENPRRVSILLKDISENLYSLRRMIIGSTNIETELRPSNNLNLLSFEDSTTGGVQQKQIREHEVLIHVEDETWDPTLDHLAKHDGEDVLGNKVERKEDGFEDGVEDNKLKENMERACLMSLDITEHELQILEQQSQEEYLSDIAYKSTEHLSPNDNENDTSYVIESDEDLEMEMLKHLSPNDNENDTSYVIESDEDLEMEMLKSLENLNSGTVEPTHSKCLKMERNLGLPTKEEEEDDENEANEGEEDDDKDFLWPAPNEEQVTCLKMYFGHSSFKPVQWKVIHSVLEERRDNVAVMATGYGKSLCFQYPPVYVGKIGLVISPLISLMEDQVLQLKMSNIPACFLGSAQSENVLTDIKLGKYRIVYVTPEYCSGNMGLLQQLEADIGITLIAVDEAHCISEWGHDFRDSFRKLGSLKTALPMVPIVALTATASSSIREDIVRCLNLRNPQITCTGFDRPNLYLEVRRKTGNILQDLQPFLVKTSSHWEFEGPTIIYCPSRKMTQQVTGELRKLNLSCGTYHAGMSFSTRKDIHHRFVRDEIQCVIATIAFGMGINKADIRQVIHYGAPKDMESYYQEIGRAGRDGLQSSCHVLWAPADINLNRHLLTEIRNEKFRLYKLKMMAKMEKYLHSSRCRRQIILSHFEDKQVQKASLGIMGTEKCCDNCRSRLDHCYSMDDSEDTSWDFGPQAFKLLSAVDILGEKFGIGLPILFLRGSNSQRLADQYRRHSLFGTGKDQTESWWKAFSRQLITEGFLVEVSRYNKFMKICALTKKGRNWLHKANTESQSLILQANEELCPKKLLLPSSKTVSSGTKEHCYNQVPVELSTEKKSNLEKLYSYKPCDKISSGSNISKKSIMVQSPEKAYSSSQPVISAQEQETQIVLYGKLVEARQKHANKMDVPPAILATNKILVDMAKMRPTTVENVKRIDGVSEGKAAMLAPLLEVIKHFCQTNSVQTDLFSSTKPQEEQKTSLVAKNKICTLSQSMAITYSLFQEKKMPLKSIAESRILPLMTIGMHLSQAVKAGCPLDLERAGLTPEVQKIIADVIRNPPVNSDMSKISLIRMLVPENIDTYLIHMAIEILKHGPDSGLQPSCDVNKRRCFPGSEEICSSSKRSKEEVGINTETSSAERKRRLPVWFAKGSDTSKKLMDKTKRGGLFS

A word on the GI50: it is the concentration at which growth is held to half of that of the control. On to `CS(=O)(=O)/C=C/CNC(=O)c1cnc(C2CCC2)nc1Oc1ccccc1` [Example 43, (E)-2-cyclobutyl-N-(3-(methylsulfonyl)allyl)-4-phenoxypyrimidine-5-carboxamide], for which the figures for the IC50 (on WRN C727; in assay [1] (setting [2])) were 18.7 µM and 1.5 µM, respectively. Besides, the GI50 was found to be 7.8 µM in the assay with SW480 cells (Homo sapiens, SW480, 120 h) and 0.67 µM with HCT 116 cells (Homo sapiens, HCT-116, 120 h).

Consider `CS(=O)(=O)/C=C/[C@H](Cc1ccccc1)NC(=O)c1cnc(C2CC2)nc1Oc1ccccc1` (single isomer, unassigned) [Example 20], for which the IC50 was 9.36 µM at WRN C727 and 1.7 µM in assay [1] (setting [2]). Besides, the GI50 in the assay on SW480 cells (Homo sapiens, SW480, 120 h) is 15.4 µM; with HCT 116 cells (Homo sapiens, HCT-116, 120 h), 0.745 µM.

In the case of `C[C@@H](/C=C/S(C)(=O)=O)NC(=O)c1cnc(C(F)(F)C2CC2)nc1Oc1ccccc1` [Example 223, (S,E)-2-(cyclopropyldifluoromethyl)-N-(4-(methylsulfonyl)but-3-en-2-yl)-4-phenoxypyrimidine-5-carboxamide], the IC50 at WRN C727 turned out to be 0.23 µM; in assay [1] (setting [2]), 0.18 µM. Moreover, the GI50 in the assay with SW480 cells (Homo sapiens, SW480, 120 h) was determined as 19 µM; in the assay on HCT 116 cells (Homo sapiens, HCT-116, 120 h), 0.0539 µM.

With `CC(/C=C/S(C)(=O)=O)NC(=O)c1cc(F)c(C2=CCCC2)nc1Oc1ccccc1` (stereo in doubt) [Example 206, (R,E)-6-(cyclopent-1-en-1-yl)-5-fluoro-N-(4-(methylsulfonyl)but-3-en-2-yl)-2-phenoxynicotinamide], the IC50 at WRN C727 is 20 µM; in assay [1], 11 µM. The 50% growth inhibitory concentration (GI50) in the assay on SW480 cells (Homo sapiens, SW480, 120 h) came out at 8.6 µM; with HCT 116 cells (Homo sapiens, HCT-116, 120 h) it was 5.7 µM.

Regarding `CC(C)(C)c1ncc(C(=O)N[C@H](/C=C/S(C)(=O)=O)Cc2ccccc2)c(Oc2ccccc2)n1` (single isomer, unassigned) [Example 60], the IC50 at WRN C727 is 2.87 µM; in assay [1] (setting [2]), 0.41 µM. Moreover, the GI50 with SW480 cells (Homo sapiens, SW480, 120 h) was 13 µM; in the assay with HCT 116 cells (Homo sapiens, HCT-116, 120 h), 0.2 µM.

For the molecule `C[C@@H](/C=C/S(C)(=O)=O)NC(=O)c1cnc(N2CCCC2)nc1Oc1ccccc1` [Example 168, (S,E)-N-(4-(methylsulfonyl)but-3-en-2-yl)-4-phenoxy-2-(pyrrolidin-1-yl)pyrimidine-5-carboxamide], the IC50 came out at 9.23 µM at WRN C727 and 4.4 µM in assay [1] (setting [2]). For the same molecule, the GI50 was 17 µM with SW480 cells (Homo sapiens, SW480, 120 h) and 1.6 µM with HCT 116 cells (Homo sapiens, HCT-116, 120 h).

For `Cn1ncc2cc(C(=O)N[C@H](/C=C/S(C)(=O)=O)C3CC3)c(Oc3ccccc3)nc21` [Example 252, (S,E)-N-(1-cyclopropyl-3-(methylsulfonyl)allyl)-1-methyl-6-phenoxy-1H-pyrazolo[3,4-b]pyridine-5-carboxamide], the IC50 on WRN C727 worked out at 0.35 µM; in assay [1] (setting [2]), 12 µM. The GI50 was over 30 µM in the assay with SW480 cells (Homo sapiens, SW480, 120 h) and 2.1 µM in the assay with HCT 116 cells (Homo sapiens, HCT-116, 120 h).

As for `C=C(C#N)CNC(=O)c1cnc(C(C)(F)F)nc1Oc1ccccc1` [Example 271, N-(2-cyanoallyl)-2-(1,1-difluoroethyl)-4-phenoxypyrimidine-5-carboxamide], the IC50 at WRN C727 came out at 17.4 µM; in assay [1] (setting [2]), 0.986 µM. Further, the GI50 with SW480 cells (Homo sapiens, SW480, 120 h) worked out at 12 µM; in the assay on HCT 116 cells (Homo sapiens, HCT-116, 120 h), 0.397 µM.

With `CS(=O)(=O)/C=C\[C@H](Cc1ccccc1)NC(=O)c1cnc(C2CC2)nc1Oc1ccccc1` (single isomer, unassigned) [Example 21], the IC50 on WRN C727 was over 100 µM; in assay [1] (setting [2]), 6.1 µM. Besides, the GI50 was found to be 14 µM in the assay with SW480 cells (Homo sapiens, SW480, 120 h) and 3.1 µM in the assay on HCT 116 cells (Homo sapiens, HCT-116, 120 h).

Take `C[C@@H](/C=C/S(C)(=O)=O)NC(=O)c1cnc(C2CCCC2)nc1OC1CCC1` [Example 127, (S,E)-4-cyclobutoxy-2-cyclopentyl-N-(4-(methylsulfonyl)but-3-en-2-yl)pyrimidine-5-carboxamide]: the IC50 on WRN C727 came to 7.28 µM; in assay [1] (setting [2]) it was 4.27 µM. Further, the concentration for 50% growth inhibition (GI50) in the assay on SW480 cells (Homo sapiens, SW480, 120 h) stood at 5.3 µM; in the assay on HCT 116 cells (Homo sapiens, HCT-116, 120 h), 1.3 µM.

As to `CN(CC(F)(F)F)c1ncc(C(=O)N[C@H](/C=C/S(C)(=O)=O)C2CC2)c(Oc2ccccc2)n1` [Example 184, (S,E)-N-(1-cyclopropyl-3-(methylsulfonyl)allyl)-2-(methyl(2,2,2-trifluoroethyl)amino)-4-phenoxypyrimidine-5-carboxamide], the IC50 came out at 1.3 µM at WRN C727 and 2.4 µM in assay [1] (setting [2]). Further, the concentration for 50% growth inhibition (GI50) came out at 3.1 µM in the assay with SW480 cells (Homo sapiens, SW480, 120 h) and 0.191 µM in the assay with HCT 116 cells (Homo sapiens, HCT-116, 120 h).

As for “2-cyclopropyl-4-(((1R,2R)-2-fluorocyclohexyl)oxy)-N—((S,E)-4-(methylsulfonyl)but-3-en-2-yl)pyrimidine-5-carboxamide; or 2-cyclopropyl-4-(((1S,2S)-2-fluorocyclohexyl)oxy)-N—((S,E)-4-(methylsulfonyl)but-3-en-2-yl)pyrimidine-5-carboxamide [Example 149]”, the GI50 in the assay with SW480 cells (SW480 (MSS), 5-day incubation) is over 10 µM; with HCT 116 cells (HCT-116 (MSI-H), 5-day incubation), 2.5 µM. Moreover, the IC50 in assay [1] (read-out: WRN Helicase IC50, 30 min preincubation with ATP, 30 min reaction) came out at 7.8 µM.

Regarding `CS(=O)(=O)/C=C/CNC(=O)c1cnc(C2CCCC2)nc1Oc1cccc(F)c1` [Example 111, (E)-2-cyclopentyl-4-(3-fluorophenoxy)-N-(3-(methylsulfonyl)allyl)pyrimidine-5-carboxamide], the GI50 in the assay on SW480 cells (Homo sapiens, SW480, 120 h) was over 10 µM; in the assay with HCT 116 cells (Homo sapiens, HCT-116, 120 h) it was 4.2 µM. The same molecule gave an IC50 in assay [1] (setting [2]) of 3.8 µM.

In the case of `CC(F)(F)c1ncc(C(=O)N[C@H](/C=C/S(C)(=O)=O)COC2CC2)c(Oc2ccccc2)n1` [Example 97, (R,E)-N-(1-cyclopropoxy-4-(methylsulfonyl)but-3-en-2-yl)-2-(1,1-difluoroethyl)-4-phenoxypyrimidine-5-carboxamide], the GI50 in the assay on SW480 cells (Homo sapiens, SW480, 120 h) was determined as 40 µM; in the assay with HCT 116 cells (Homo sapiens, HCT-116, 120 h), 0.07 µM. For the same molecule, the IC50 in assay [1] (setting [2]) is 0.22 µM.

Turning to `C=C(CNC(=O)c1cnc(C2CC2)nc1Oc1ccccc1)S(C)(=O)=O` [Example 287, 2-cyclopropyl-N-(2-(methylsulfonyl)allyl)-4-phenoxypyrimidine-5-carboxamide], the GI50 was 3.9 µM with SW480 cells (Homo sapiens, SW480, 120 h) and 3.5 µM with HCT 116 cells (Homo sapiens, HCT-116, 120 h). In assay [1] (setting [2]), this molecule showed an IC50 of 8 µM.

With `CNc1ncc(C(=O)N[C@H](/C=C/S(C)(=O)=O)C2CC2)c(Oc2ccccc2)n1` [Example 178, (S,E)-N-(1-cyclopropyl-3-(methylsulfonyl)allyl)-2-(methylamino)-4-phenoxypyrimidine-5-carboxamide], the GI50 was found to be 45 µM in the assay with SW480 cells (Homo sapiens, SW480, 120 h) and 3.2 µM with HCT 116 cells (Homo sapiens, HCT-116, 120 h). This molecule also displayed an IC50 in assay [1] (setting [2]) of 15 µM.

`CC1C(=CC#N)CN1C(=O)c1cnc(C2CC2)nc1Oc1ccccc1` (racemic) [Example 265, 2-(1-(2-cyclopropyl-4-phenoxypyrimidine-5-carbonyl)-2-methylazetidin-3-ylidene)acetonitrile]: the GI50 with SW480 cells (Homo sapiens, SW480, 120 h) is over 10 µM; with HCT 116 cells (Homo sapiens, HCT-116, 120 h) it was 8.5 µM. In assay [1], the IC50 is 7.2 µM.

With `C[C@@H](C#CC(=O)N(C)C)NC(=O)c1cnc(C(C)(F)F)nc1Oc1ccccc1` [Example 263, (S)-2-(1,1-difluoroethyl)-N-(5-(dimethylamino)-5-oxopent-3-yn-2-yl)-4-phenoxypyrimidine-5-carboxamide], the GI50 in the assay on SW480 cells (Homo sapiens, SW480, 120 h) worked out at 2.3 µM; in the assay with HCT 116 cells (Homo sapiens, HCT-116, 120 h), 1.4 µM. Besides, the IC50 in assay [1] (setting [2]) was 5.5 µM.

In the case of `CS(=O)(=O)/C=C/[C@@H](NC(=O)c1cc(F)c(C(F)(F)C2CC2)nc1Oc1ccccc1)C1CC1` [Example 236, (S,E)-N-(1-cyclopropyl-3-(methylsulfonyl)allyl)-6-(cyclopropyldifluoromethyl)-5-fluoro-2-phenoxynicotinamide], the GI50 in the assay with SW480 cells (Homo sapiens, SW480, 120 h) came out at 4.5 µM; in the assay with HCT 116 cells (Homo sapiens, HCT-116, 120 h), 0.012 µM. Moreover, the IC50 in assay [1] (setting [2]) turned out to be 0.042 µM.

As for `[2H]c1c([2H])c([2H])c(Oc2nc(C3CC3)ncc2C(=O)N[C@@H](C)/C=C/S(C)(=O)=O)c([2H])c1[2H]` [Example 140], the GI50 came out at 32 µM in the assay on SW480 cells (Homo sapiens, SW480, 120 h) and 0.33 µM with HCT 116 cells (Homo sapiens, HCT-116, 120 h). In assay [1] (setting [2]), this molecule yielded an IC50 of 1.9 µM.

In the case of `CS(=O)(=O)/C=C/[C@@H](NC(=O)c1cnc(OCC(F)(F)F)nc1Oc1ccccc1)C1CC1` [Example 246, (S,E)-N-(1-cyclopropyl-3-(methylsulfonyl)allyl)-4-phenoxy-2-(2,2,2-trifluoroethoxy)pyrimidine-5-carboxamide], the GI50 was 16 µM in the assay with SW480 cells (Homo sapiens, SW480, 120 h) and 0.64 µM in the assay on HCT 116 cells (Homo sapiens, HCT-116, 120 h). Also, the IC50 in assay [1] (setting [2]) was determined as 8 µM.

On to `CC(F)(F)c1ncc(C(=O)N[C@H](/C=C/S(C)(=O)=O)C2CCC(F)(F)CC2)c(Oc2ccccc2)n1` [Example 91, (S,E)-N-(1-(4,4-difluorocyclohexyl)-3-(methylsulfonyl)allyl)-2-(1,1-difluoroethyl)-4-phenoxypyrimidine-5-carboxamide], for which the GI50 in the assay on SW480 cells (Homo sapiens, SW480, 120 h) was 26.1 µM; in the assay on HCT 116 cells (Homo sapiens, HCT-116, 120 h), 0.252 µM. For the same molecule, in assay [1] (setting [2]), the IC50 amounted to 0.6 µM.

In the case of `CC(F)(F)c1ncc(C(=O)N[C@H](/C=C/S(C)(=O)=O)CC(F)F)c(Oc2ccccc2)n1` [Example 90, (S,E)-N-(5,5-difluoro-1-(methylsulfonyl)pent-1-en-3-yl)-2-(1,1-difluoroethyl)-4-phenoxypyrimidine-5-carboxamide], the GI50 with SW480 cells (Homo sapiens, SW480, 120 h) was 19.2 µM; in the assay with HCT 116 cells (Homo sapiens, HCT-116, 120 h) it was 0.327 µM. Further, the IC50 in assay [1] (setting [2]) was determined as 0.69 µM.

With `C[C@@H](/C=C/S(C)(=O)=O)NC(=O)c1cnc(C2CC2)nc1OC12CCC(CC1)C2` [Example 143, (S,E)-4-(bicyclo[2.2.1]heptan-1-yloxy)-2-cyclopropyl-N-(4-(methylsulfonyl)but-3-en-2-yl)pyrimidine-5-carboxamide], the GI50 was determined as 13 µM in the assay with SW480 cells (Homo sapiens, SW480, 120 h) and 3.4 µM in the assay with HCT 116 cells (Homo sapiens, HCT-116, 120 h). In assay [1] (setting [2]), this molecule came in with an IC50 of 14 µM.
